The values that follow come from ChEMBL document CHEMBL1201862, “PubChem BioAssay data set” (2004).

Common to all, as to experiment: growth of human tumour cells (NCI), 48 h
The subject of assay [1] is 786-0.
Assay [2] relates to A498.
Assay [3] relates to HCT-15.
The test system of assay [4] is HOP-62.
Assay [5] deals with HT-29.
In assay [6] the test system is IGROV-1.
The test system of assay [7] is MDA-MB-231.
For assay [8], the system named is MOLT-4.
Assay [9] deals with Malme-3M.
Assay [10] deals with NCI-H23.
In assay [11] the test system is OVCAR-8.
Assay [12] concerns SF-295.
For assay [13], the system named is SK-OV-3.
The subject of assay [14] is SN12C.
Assay [15] deals with SW-620.
For assay [16], the system named is T47D.
Assay [17] deals with TK-10.
Assay [18] deals with UACC-257.
The subject of assay [19] is UO-31.
For assay [20], the system named is OVCAR-5.

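48-hour exposure; five concentrations; linearly interpolated endpoints. Here, GI50 denotes the concentration required for 50% inhibition of growth.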 The source made the active and inactive calls. Cut-off read from the data, not from the text of the source: active = GI50 up to about 1.1 µM and inactive = higher. Some results are limits rather than exact numbers.

For `O=c1cc(-c2ccccc2)[nH]c2ccc(N3CCOCC3)cc12`, the GI50 in assay [1] was 0.0363 µM (active); in assay [2] it was 0.0413 µM (active); in assay [3], 0.0241 µM; in assay [4], 0.0241 µM (active); in assay [5] it was 0.0211 µM (active); in assay [6] it was 0.0518 µM (active). Besides, the GI50 in [7] is 0.0618 µM (active); in assay [8] it was 0.104 µM (active); in assay [9], 14 µM (inactive); in [10], 0.0414 µM (active); in [11], 0.042 µM (active); in [12], 0.0236 µM (active). Besides, the GI50 in assay [13] was 0.0327 µM (active); in assay [14], 0.0467 µM (active); in [15], 0.0371 µM (active); in assay [16] it was > 100 µM (inactive); in [17], 55 µM (inactive); in assay [18], > 100 µM (inactive). Moreover, the GI50 in assay [19] was 13.2 µM (inactive).
Turning to `CCOC(=O)c1ccc2nc(NC(=O)COC(=O)CSc3nc(C)cc(C)n3)sc2c1`, the GI50 is 97.1 µM (inactive) in assay [1]; 34 µM (inactive) in [2]; 46.6 µM in [3]; 13.7 µM (inactive) in [4]; 66.2 µM (inactive) in assay [5]; 27 µM (inactive) in [6]. For the same compound, the GI50 was 66.4 µM (inactive) in assay [7]; 42.5 µM (inactive) in assay [8]; > 100 µM (inactive) in assay [9]; > 100 µM (inactive) in assay [10]; 20.4 µM (inactive) in [20]; 57.9 µM (inactive) in [11]. For the same compound, the GI50 in assay [12] was 36.6 µM (inactive); in assay [13] it was 32.5 µM (inactive); in [14], 39 µM (inactive); in assay [15], > 100 µM (inactive); in assay [16] it was 16.7 µM (inactive); in [17] it was 29.3 µM (inactive). Besides, the GI50 was > 100 µM (inactive) in assay [18] and 13.9 µM (inactive) in assay [19].
Turning to `C=CCn1c(=O)c2ccccc2[n+]2c(-c3cccc([N+](=O)[O-])c3)csc12`, the GI50 in assay [1] is 48.9 µM (inactive); in assay [2], 31.6 µM (inactive); in assay [4] it was 76.7 µM (inactive); in assay [5], 30.8 µM (inactive); in assay [6], 50.5 µM (inactive); in assay [7], 87.3 µM (inactive). Also, the GI50 is 24.7 µM (inactive) in assay [8]; > 100 µM (inactive) in assay [9]; 54.5 µM (inactive) in [10]; > 100 µM (inactive) in assay [20]; 34.8 µM (inactive) in assay [11]; 53.1 µM (inactive) in assay [12]. The GI50 in assay [13] was 68.1 µM (inactive); in [14], > 100 µM (inactive); in assay [15], > 100 µM (inactive); in assay [16], 19.7 µM (inactive); in assay [17] it was 38.4 µM (inactive); in [18], 36.3 µM (inactive). For the same compound, the GI50 in [19] is 28.6 µM (inactive).
On to `O=C1N=C(S)NNC12c1ccccc1-c1ccccc12`, for which the GI50 in assay [1] was > 10 µM (inactive); in assay [2], 3.31 µM (inactive); in assay [3] it was above 10 µM; in assay [4] it was > 10 µM (inactive); in assay [5], > 10 µM (inactive); in assay [6] it was > 10 µM (inactive). Also, the GI50 in assay [7], in assay [8], in assay [9], in assay [10], in [11] and in assay [13] was > 10 µM (inactive) in each case. In addition, the GI50 in assay [14] was > 10 µM (inactive); in assay [15], > 10 µM (inactive); in assay [16] it was 1.98 µM (inactive); in assay [17], > 10 µM (inactive); in assay [18], > 10 µM (inactive); in assay [19], 4.81 µM (inactive).
For the compound `COc1ccc(/C=C(/C#N)C(N)=O)cc1OC`, the GI50 in assay [1] is > 100 µM (inactive); in assay [2], 72.6 µM (inactive); in [3], above 100 µM; in assay [4], > 100 µM (inactive); in [5] it was > 100 µM (inactive); in assay [6], > 100 µM (inactive). Moreover, the GI50 in assay [7], in assay [8], in assay [9], in assay [10], in assay [20] and in assay [11] was > 100 µM (inactive) each time. In addition, the GI50 in [12], in assay [13], in assay [14], in [15], in [16] and in [17] was > 100 µM (inactive) throughout. For the same compound, in [18], the GI50 is > 100 µM (inactive).
As for `CC(C)C1OC(/C=C/c2ccccc2)OCC1(C)C` (stereo not drawn), the GI50 is 37.1 µM (inactive) in assay [1]; 24 µM (inactive) in assay [2]; 24.8 µM in [3]; 32.1 µM (inactive) in assay [4]; 27.7 µM (inactive) in assay [5]; 40.1 µM (inactive) in assay [6]. Besides, the GI50 was 36.4 µM (inactive) in assay [7]; 0.91 µM (active) in assay [9]; 27.7 µM (inactive) in assay [10]; 44.5 µM (inactive) in assay [20]; 31.6 µM (inactive) in assay [11]; 31 µM (inactive) in assay [12]. Moreover, the GI50 is 48.3 µM (inactive) in [13]; 21.6 µM (inactive) in [14]; 30.7 µM (inactive) in assay [15]; 31.4 µM (inactive) in assay [16]; 35.1 µM (inactive) in assay [17]; 24.8 µM (inactive) in assay [18]. Moreover, the GI50 in [19] is 34.8 µM (inactive).
Turning to `CC(=O)Nc1ccc(N2C(=O)/C(=C\c3cccc(Oc4ccccc4)c3)SC2c2ccccc2)cc1` (stereo not drawn), the GI50 in [1] is 37.8 µM (inactive); in [2], 50.1 µM (inactive); in [3], 78.5 µM; in assay [4], 22.6 µM (inactive); in assay [7] it was 32.6 µM (inactive); in assay [8], 27.9 µM (inactive). Also, the GI50 was 28 µM (inactive) in assay [9]; 26.1 µM (inactive) in assay [10]; > 100 µM (inactive) in assay [20]; 17.1 µM (inactive) in assay [11]; 38.5 µM (inactive) in assay [12]; 16.1 µM (inactive) in assay [13]. Further, the GI50 in assay [14] was 26.8 µM (inactive); in assay [15], 30.8 µM (inactive); in [16] it was 54.1 µM (inactive); in assay [17], 34.4 µM (inactive); in [18], 35 µM (inactive); in [19] it was 82.6 µM (inactive).
With `O=C1c2ccccc2NC(=O)C2C1C(c1ccccc1)CC2(O)c1ccccc1` (stereo not drawn), the GI50 is 69.5 µM (inactive) in assay [1]; > 100 µM (inactive) in assay [2]; 50.5 µM in [3]; 79.1 µM (inactive) in assay [4]; 26 µM (inactive) in [5]; 52.4 µM (inactive) in [6]. Further, the GI50 in [7] is 34.4 µM (inactive); in [8], 15.4 µM (inactive); in assay [9] it was > 100 µM (inactive); in assay [10], 62.7 µM (inactive); in [20], > 100 µM (inactive); in assay [11], > 100 µM (inactive). Besides, the GI50 in assay [12] is 43.6 µM (inactive); in assay [13] it was > 100 µM (inactive); in [14], > 100 µM (inactive); in assay [15] it was 50.8 µM (inactive); in [16], 49.7 µM (inactive); in assay [17] it was 39.3 µM (inactive). In assay [18], the GI50 is 79.4 µM (inactive).
On to `COC1CC(OC(=O)c2ccccc2)C(OC(=O)c2ccccc2)C(C)O1` (stereo not drawn), for which the GI50 in assay [1] is > 100 µM (inactive); in [2], > 100 µM (inactive); in assay [3], above 100 µM; in assay [4], > 100 µM (inactive); in assay [6], > 100 µM (inactive); in assay [7] it was > 100 µM (inactive). In addition, the GI50 in assay [8], in assay [9], in assay [10], in assay [20], in [11] and in [12] was > 100 µM (inactive) each time. Also, the GI50 in assay [13], in assay [14], in [15], in assay [16], in assay [17] and in [18] was > 100 µM (inactive) throughout. Moreover, in [19], the GI50 was > 100 µM (inactive).
On to `N#Cc1ccc(Oc2nc3ccccc3nc2C(=O)O)cc1`, for which the GI50 in assay [1] was > 100 µM (inactive); in assay [2] it was > 100 µM (inactive); in assay [3], above 100 µM; in [4], > 100 µM (inactive); in assay [5] it was > 100 µM (inactive); in assay [6] it was > 100 µM (inactive). Besides, the GI50 in [7], in [8], in assay [9], in assay [10], in assay [20] and in [11] was > 100 µM (inactive) each time. Further, the GI50 in assay [12], in assay [13], in assay [15], in [16], in assay [17] and in [18] was > 100 µM (inactive) each time. In addition, the GI50 in assay [19] is > 100 µM (inactive).
As for `c1ccc(C(CCN2CCCC2)c2ccccn2)cc1` (stereo not drawn), the GI50 in assay [1] was > 100 µM (inactive); in [2] it was > 100 µM (inactive); in [3], above 100 µM; in assay [4] it was > 100 µM (inactive); in [5] it was > 100 µM (inactive); in [6], > 100 µM (inactive). In addition, the GI50 in assay [7], in assay [9], in assay [10], in assay [20], in assay [11] and in assay [12] was > 100 µM (inactive) throughout. Further, the GI50 in [13], in assay [14], in assay [15], in assay [16], in [17] and in assay [18] was > 100 µM (inactive) throughout. Moreover, the GI50 in assay [19] was > 100 µM (inactive).
